Results on 13 compounds are retold here after patent publication US9233979B2, “Compounds that are ERK inhibitors” (Merck Sharp & Dohme Corp., priority 2012, dated 2016).

Chain of phosphorylated active hERK2 enzyme (P28482 whole entry): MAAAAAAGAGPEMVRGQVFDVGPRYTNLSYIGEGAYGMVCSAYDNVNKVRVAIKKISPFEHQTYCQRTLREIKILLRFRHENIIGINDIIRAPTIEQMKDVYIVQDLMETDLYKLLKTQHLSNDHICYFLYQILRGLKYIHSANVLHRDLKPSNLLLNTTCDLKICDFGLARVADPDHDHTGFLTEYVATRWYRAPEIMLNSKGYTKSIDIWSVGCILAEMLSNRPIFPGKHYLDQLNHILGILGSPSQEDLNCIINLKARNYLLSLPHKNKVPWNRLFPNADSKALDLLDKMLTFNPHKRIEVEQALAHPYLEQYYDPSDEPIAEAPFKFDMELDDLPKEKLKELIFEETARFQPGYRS

The assay addresses phosphorylated active hERK2 enzyme (Homo sapiens (Human), UniProt P28482). Nature of the assay: Active Human ERK2 (hERK2) Activity Assay (IMAP-FP). The class given is biochemical. The note with it: Table 6, 0.5 nM hERK2, 30 μM ATP, 10 point titration, read-out: AERK2 IC50. The method, boiled down: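 IMAP fluorescence-polarization kinase assay: 0.5 nM activated hERK2 with 900 nM unlabeled plus 80 nM labeled peptide and 30 μM ATP, reacted 60 min. Quenched with IMAP beads in binding buffer with 24 mM NaCl; FP read after 60 min equilibration.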
Regarding `CC(C)C(=O)Nc1n[nH]c2cc(NC(=O)N[C@H](C)c3ccccc3)ncc12` [Example 163, 2-methyl-N-[6-({[(1R)-1-phenylethyl]-carbamoyl}amino)-1H-pypyrazolo[4,3-c]-pyridin-3-yl]propanamide], the IC50 came out at 0.6 nM. On to `COCCNc1n[nH]c2cc(NC(=O)N[C@H](C)c3ccc(F)cc3)ncc12` [Example 374, 1-[(1R)-1-(4-fluorophenyl)ethyl]-3-{3-[(2-methoxy-ethyl)amino]-1H-pyrazolo[4,3-c]-pyridin-6-yl}urea], for which the IC50 was determined as 2.8 nM. As for `C[C@@H](NC(=O)Nc1cc2[nH]nc(NCC3CCCCO3)c2cn1)c1ccccc1` (stereo partly drawn) [Example 196, 1-[(1R)-1-phenylethyl]-3-{3-[(tetrahydro-2H-pyran-2-yl-methyl)amino]-1H-pyrazolo[4,3-c]-pyridin-6-yl}urea], the figure is 27.9 nM; as for `C[C@@H]1Cc2nc(NC(=O)N[C@H](C)c3ccccc3)cc3[nH]nc(c23)N1` [Example 138, 1-((R)-4-methyl-1,3,4,5-tetrahydropyrazolo[3,4,5-de][1,6]naphthyridin-7-yl)-3-((R)-1-phenylethyl)urea], 5.9 nM. For `C[C@@H](NC(=O)Nc1cc2[nH]nc(NCc3ccncc3)c2cn1)c1ccccc1` [Example 179, 1-[(1R)-1-phenylethyl]-3-{3-[(pyridin-4-yl-methyl)amino]-1H-pyrazolo[4,3-c]-pyridin-6-yl}urea], the IC50 is 1 nM.

Consider `CC12CCC(O1)C1CN(c3n[nH]c4cc(NC(=O)N[C@@H](c5ccc(F)cc5)C(C)(C)O)ncc34)CC12` (stereo partly drawn) [Example 377, 1-[(1S)-1-(4-fluorophenyl)-2-hydroxy-2-methyl-propyl]-3-[3-(4-methyloctahydro-2H-4,7-epoxyisoindo1-2-yl)-1H-pyrazolo[4,3-c]-pyridin-6-yl]urea], for which the IC50 was 2.3 nM. As for `[2H]C([2H])([2H])C([2H])([2H])Nc1n[nH]c2cc(NC(=O)N[C@H](C)c3ccccc3)ncc12` [Example 113, (R)-1-(3-((ethyl-D5)amino)-1H-pyrazolo[4,3-c]-pyridin-6-yl)-3-(1-phenylethyl)urea], the figure is 1.6 nM; as for `Cc1cccc(Cl)c1CNC(=O)Nc1cc2[nH]nc(N)c2cn1` [Example 266, 1-(3-amino-1H-pyrazolo[4,3-c]pyridin-6-yl)-3-(2-chloro-6-methylbenzyl)urea], 13.8 nM; as for `Cc1nc(NC(=O)N[C@@H](c2ccc(F)cc2)[C@@H](C)O)cc2[nH]nc(N3CCOCC3)c12` [Example 106, 1-((1S,2R)-1-(4-Fluorophenyl)-2-hydroxypropyl)-3-(4-methyl-3-morpholino-1H-pyrazolo[4,3-c]pyridin-6-yl)urea], 0.5 nM. The value for `COC(=O)Nc1n[nH]c2cc(NC(=O)N[C@@H](c3ccccc3)C3(O)CCCC3)ncc12` [Example 289, methyl [6-({[(S)-(1-hydroxycyclo-pentyl)(phenyl)-methyl]carbamoyl}amino)-1H-pyrazolo[4,3-c]-pyridin-3-yl]-carbamate] was 0.9 nM; that for `C[C@@H](NC(=O)Nc1cc2[nH]nc(N3CCC4(CC3)COC4)c2cn1)c1ccccc1` [Example 89, 1-[3-(2-oxa-7-azaspiro[3.5]non-7-yl)-1H-pyrazolo[4,3-c]pyridin-6-yl]-3-[(1R)-1-phenylethyl]-urea] was 9.1 nM; that for `C[C@@H](NC(=O)Nc1cc2[nH]nc(NC3(C)CCC3)c2cn1)c1ccccc1` [Example 356, 1-{3-[(1-methylcyclo-butyl)amino]-1H-pyrazolo[4,3-c]-pyridin-6-yl}-3-[(1R)-1-phenylethyl]urea] was 54.1 nM.

Take `COC1CCN(c2n[nH]c3cc(NC(=O)N[C@H](COC(F)F)c4ccccc4)ncc23)CC1` [Example 426, 1-[(1S)-2-(difluoromethoxy)-1-phenylethyl]-3-[3-(4-methoxy-piperidin-1-yl)-1H-pyrazolo[4,3-c]-pyridin-6-yl]urea]: the IC50 amounted to 1 nM.

In general, IC50 refers to the concentration at which inhibition is half-maximal.
